Results: US20170216179A1, “COSMETIC AND/OR DERMATOLOGICAL COMPOSITION FOR COLOURING THE SKIN” (AFFICHEM, priority 2014, published 2017)

Key:
[1] = tested on: TRP-1; test: Gene expression by RT-qPCR, TRP-1; type: cell-based, murine; conditions: 1 μM, 24 h
Description: (§1) Cells were seeded and treated for 24 h with the molecules the action of which we want to study, that is to say here, with DDA (1 μM), on the one hand, and with L7DDA (0.1 or 1 or 2.5 or 5 μM) on the other. The results were compared with irradiated ultraviolet cells as in Example 6.
(§2) To quantify the expression of these genes, RNA extraction from cells was performed. Melanocytes were treated for 24 h with the active molecule or the control agent. 1 mL of Trizol® was added; after 5 min at room temperature, the totality was placed in an Eppendorf tube. 200 μL of CHCl3 were added at 4° C. The Eppendorf tubes were stirred manually, by turning them during 15 sec, left for 5 min at room temperature and then centrifuged at 16000 g at 4° C. for 10 min. The colourless aqueous phase was isolated. 500 μL of isopropanol (−20° C.) were added. The Eppendorf tubes were stirred manually, by turning them during 15 sec, left for 15 min at room temperature and then centrifuged at 16200 g at 4° C. for 10 min. The supernatant was removed. The pellet was washed with 1 mL of 75% ethanol (−20° C.). After centrifugation at 16000 g at 4° C. for 5 min, the supernatant was removed. 10 min after drying, the pellet was resuspended with 30 μL of RNAase-free water. The quantity and purity of RNA were estimated by spectrophotometry (230, 260 and 280 nm). […]

[2] = tested on: healthy murine melanocytes; test: Quantification of melanin synthesized by melanocytes; type: cell-based; conditions: cells treated 24 h; relative to control (=100%); FIG. 3
Description: Quantification of synthesized melanin by healthy murine melanocytes was performed according to the protocol described by Ando et al. (J. Lipid Res., 1999, 40, 1312).
Cells were seeded and treated for 24 h with the test product or the used vehicle (ethanol) and with, as a positive control, exposure to a dose of 20 mJ/cm^2 of ultraviolet radiation.
5 Million cells were isolated after centrifugation at 1500 rpm for 5 min at 4° C. The pellet was washed twice with PBS and then transferred into an Eppendorf tube and centrifuged at 5000 g for 5 min. The supernatant was removed. 200 μL of water and 1 mL of EtOH/ether (1/1) were added (melanin was insoluble in this mixture). After 15 min at room temperature, the totality was again centrifuged at 5000 g for 5 min; the supernatant was removed. The pellet was then taken up with 300 μL of a solution of NaOH(1M) in H2O/DMSO 90/10 and placed at 80° C. for one hour. Absorbance was measured at 470 nm. The amount of synthesized melanin was expressed based on the control (=100%).

[3] = tested on: tyrosinase; test: Stimulation of tyrosinase activity in melanocytes (L-DOPA oxidation); type: cell-based, murine; conditions: cells treated 24 h; with respect to the control (=100%); FIG. 4
Description: The study was conducted on healthy murine melanocytes. The results were compared with those obtained with a positive control subjected to a dose of 20 mJ/cm^2 of ultraviolet radiation. The cells were treated for 24 h with either the vehicle used (ethanol) or with the test product. The tyrosinase activity was quantified according to the protocol described by Ando et al. (J. Lipid Res. 1999, 40, 1312) as explained below.
5 Million cells were isolated after centrifugation at 1500 rpm for 5 min at 4° C. The pellet was washed twice with PBS and then transferred into an Eppendorf tube and centrifuged at 5000 g for 5 min. The supernatant was removed. 1 mL of 0.5% by mass sodium deoxycholate solution was added (cell lysis). After 15 min at 0° C., 3 mL of a solution of 0.1% by mass of L-DOPA in 0.1M phosphate buffer (pH 6.8) were added. The whole was placed at 37° C. for 10 min. Tyrosinase activity was spectrophotometrically analysed by following the oxidation of L-DOPA to DOPAchrome. Absorbance was measured at 475 nm. The tyrosinase activity was expressed based on the control (=100%), which determines the cell basal tyrosinase activity.

[4] = tested on: TRP-2; test: Gene expression by RT-qPCR, TRP-2; type: cell-based, murine; conditions: 1 μM, 24 h
Description: as §1, §2

[5] = tested on: tyrosinase; test: Gene expression by RT-qPCR, tyrosinase; type: cell-based, murine; conditions: 1 μM, 24 h
Description: as §1, §2

In the case of CC(C)CCC[C@@H](C)[C@H]1CC[C@H]2[C@@H]3C[C@@H](NCCc4c[nH]cn4)[C@@]4(O)C[C@@H](O)CC[C@]4(C)[C@H]3CC[C@]12C [DDA, 5α-hydroxy-6β-[2-(1H-imidazol-4-yl)ethylamino]cholestan-3β-ol], the “ΔΔCT (TRP-1)” value [1] is reported as 13.45, the synthesis of melanin [2] is reported as “increase” and the “tyrosinase activity in cells” value [3] is reported as “increased”. The “ΔΔCT (TRP-2)” value [4] was 6.97 and the “ΔΔCT (tyrosinase)” value [5] was 6.09.
